Assays:
Assay type in all cases: in vivo
[1] = tested on: Ctenocephalides felis; experiment: Test Example 15: Mortality Test for Cat Flea; conditions: 96 h
Method: To the bottom surface and the side surface of a petri dish having an inner diameter of 5.3 cm, 400 μL of an acetone solution in which 40 mg of the compound of the present invention was dissolved in 40 mL of acetone (concentration: 1,000 ppm) was applied and the acetone was volatilized to form a thin film of the compound of the present invention on the inner wall of the petri dish. The inner wall of the used petri dish has an area of 40 cm^2, so that the amount of the applied drug is 1 μg/cm^2. In the petri dish, 10 Ctenocephalides felis imagines (male and female were mixed) were released and the petri dish was capped and stored in a thermostat room of 25° C. The number of killed larvae after 4 days was measured and the mortality was calculated from the same calculation formula as that in Test Example 1. Here, the test was carried out on the single sample.

[2] = tested on: Plutella xylostella; experiment: Test Example 1: Mortality Test for Plutella xylostella; conditions: 144 h
Method: (§1) A 10% emulsifiable concentrate of the compound of the present invention (depending on the type of the compound, a 10% wettable powder was subjected to the test) was diluted with water containing a spreader to prepare a drug solution in a concentration of 10 ppm. In this drug solution, a leaf of canarium album was immersed for about 10 seconds and was air-dried and then put into a petri dish. In the petri dish, five 2 instar larvae of Plutella xylostella per petri dish were released and the petri dish was capped and stored in a thermostat room of 25° C. The number of killed larvae after 6 days was measured and the mortality was calculated from the following calculation formula: Mortality (%)=(number of killed larvae/number of released larvae)×100. Here, the test was carried out with two replications.

[3] = tested on: Eysarcoris lewisi; experiment: Test Example 7: Mortality Test for Eysarcoris lewisi; conditions: in Oryza sativa, 48 h
Method: (§2) A 10% emulsifiable concentrate of the compound of the present invention (depending on the type of the compound, a 10% wettable powder was subjected to the test) was diluted with water containing a spreader to prepare a drug solution in a concentration of 500 ppm. In this drug solution, a leaf sheath of Oryza sativa was immersed for about 10 seconds and was air-dried and then put into a test tube. In the test tube, five 1 instar larvae of Eysarcoris lewisi per one test tube were released and the test tube was capped with a sponge and stored in a thermostat room of 25° C. The number of killed larvae after 2 days was measured and the mortality was calculated from the same calculation formula as that in Test Example 1. Here, the test was carried out with two replications.

[4] = tested on: Thrips palmi; experiment: Test Example 6: Mortality Test for Thrips palmi; conditions: 48 h
Method: (§3) In a styrol cup having an inner diameter of 7 cm, a wet filtration paper was laid, and on the paper, a leaf of kidney bean cut out so as to have the same diameter as the inner diameter of the cup was laid, followed by inoculating 10 imagines of Thrips palmi per leaf to the leaf. A 10% emulsifiable concentrate of the compound of the present invention (depending on the type of the compound, a 10% wettable powder was subjected to the test) was diluted with water containing a spreader to prepare a drug solution in a concentration of 100 ppm. The drug solution was dusted using a rotary dusting tower in an amount of 2.5 mL per one styrol cup and the cup was capped and stored in a thermostat room of 25° C. The number of killed imagines after 2 days was measured and the mortality was calculated from the same calculation formula as that in Test Example 1. Here, the test was carried out with two replications.

[5] = tested on: Spodoptera litura; experiment: Test Example 2: Mortality Test for Spodoptera litura; conditions: 144 h
Method: as §1, with “Spodoptera litura” for “Plutella xylostella”, “same” for “following”, “formula as that in Test Example 1.” for “formula: Mortality (%)=(number of killed larvae/number of released larvae)×100.”

[6] = tested on: Frankliniella occidentalis; experiment: Test Example 5: Mortality Test for Frankliniella occidentalis; conditions: 48 h
Method: as §3, with “ten 1 instar larvae” for “10 imagines”, “Frankliniella occidentalis” for “Thrips palmi”, “500” for “100”, “per” for “per one”, “larvae” for “imagines”

[7] = tested on: Nilaparvata lugens; experiment: Test Example 8: Mortality Test for Nilaparvata lugens; conditions: 144 h, drug solution 500 ppm, Oryza sativa leaf sheath immersed, 2 instar larvae, after 6 days
Method: as §2, with “five 2” for “five 1”, “of Nilaparvata lugens” for “of Eysarcoris lewisi”, “per” for “per one”, “after 6” for “after 2”

[8] = tested on: American dog ticks (Dermacentor variabilis); experiment: Test Example 16: Mortality Test for American Dog Tick; conditions: 96 h, thin film in petri dishes, 0.1 μg/cm^2 (acetone solution 100 ppm), protonymphs, after 4 days
Method: To the bottom surfaces and the side surfaces of two petri dishes having an inner diameter of 5.3 cm, 400 μL of an acetone solution in which 4 mg of a compound of the present invention was dissolved in 40 mL of acetone (concentration: 100 ppm) was applied and the acetone was volatilized to form a thin film of the compound of the present invention on the inner walls of the petri dishes. The inner wall of the used petri dish has an area of 40 cm^2, so that the amount of the applied drug is 0.1 μg/cm^2. In one petri dish, 10 American dog ticks (Dermacentor variabilis) protonymphs (male and female were mixed) were released and the petri dish was capped with the other petri dish. The seam part of the two petri dishes was sealed with a tape so that the protonymphs could not flee and the two petri dishes were stored in a thermostat room of 25° C. The number of killed protonymphes after 4 days was measured and the mortality was calculated from the same calculation formula as that in Test Example 1. Here, the test was carried out on the single sample.

Cc1cc(C2=NOC(c3cc(Cl)cc(Cl)c3)(C(F)(F)F)C2)ccc1C(=O)NC1(c2ccccn2)CC1 (centres unmarked) [No. 1-007, 4-[5-(3,5-Dichlorophenyl)-5-trifluoromethyl-4,5-dihydroisoxazole-3-yl]-2-methyl-N-[1-(2-pyridyl)cyclopropyl]benzamide]
≥ 80%: mortality at 1000 ppm, 1 µg/cm2 [1] | mortality at 10 ppm [2] | mortality at 500 ppm [3] | mortality at 100 ppm [4] | mortality at 10 ppm [5] | mortality at 500 ppm [6] | mortality at 500 ppm [7] | mortality at 100 ppm, 0.1 µg/cm2 [8]

— US8119671B2, “Isoxazoline-substituted benzamide compound and pest control agent” (Nissan Chemical Industries, Ltd., priority 2007, dated 2012)
